Source: PubChem BioAssay AID588654 (The Scripps Research Institute Molecular Screening Center, 2011)
Active and inactive are the calls of the source.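 Rule for the calls: active = EGF receptor protein level falling or rising by at least 30% versus DMSO-treated cells; inactive = the rest.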

target: Epidermal growth factor receptor (Homo sapiens) (UniProt P00533); test: EGFR abundance shift in colorectal carcinoma cells – HT29 cells, chemiluminescent western blot, total EGFR, counter-screen for KLF5 inhibitor project, late-stage follow-up (AID 588654); conditions: 24 h, at 10 µM, active compounds read high
Sequence (P00533 whole entry, looked up): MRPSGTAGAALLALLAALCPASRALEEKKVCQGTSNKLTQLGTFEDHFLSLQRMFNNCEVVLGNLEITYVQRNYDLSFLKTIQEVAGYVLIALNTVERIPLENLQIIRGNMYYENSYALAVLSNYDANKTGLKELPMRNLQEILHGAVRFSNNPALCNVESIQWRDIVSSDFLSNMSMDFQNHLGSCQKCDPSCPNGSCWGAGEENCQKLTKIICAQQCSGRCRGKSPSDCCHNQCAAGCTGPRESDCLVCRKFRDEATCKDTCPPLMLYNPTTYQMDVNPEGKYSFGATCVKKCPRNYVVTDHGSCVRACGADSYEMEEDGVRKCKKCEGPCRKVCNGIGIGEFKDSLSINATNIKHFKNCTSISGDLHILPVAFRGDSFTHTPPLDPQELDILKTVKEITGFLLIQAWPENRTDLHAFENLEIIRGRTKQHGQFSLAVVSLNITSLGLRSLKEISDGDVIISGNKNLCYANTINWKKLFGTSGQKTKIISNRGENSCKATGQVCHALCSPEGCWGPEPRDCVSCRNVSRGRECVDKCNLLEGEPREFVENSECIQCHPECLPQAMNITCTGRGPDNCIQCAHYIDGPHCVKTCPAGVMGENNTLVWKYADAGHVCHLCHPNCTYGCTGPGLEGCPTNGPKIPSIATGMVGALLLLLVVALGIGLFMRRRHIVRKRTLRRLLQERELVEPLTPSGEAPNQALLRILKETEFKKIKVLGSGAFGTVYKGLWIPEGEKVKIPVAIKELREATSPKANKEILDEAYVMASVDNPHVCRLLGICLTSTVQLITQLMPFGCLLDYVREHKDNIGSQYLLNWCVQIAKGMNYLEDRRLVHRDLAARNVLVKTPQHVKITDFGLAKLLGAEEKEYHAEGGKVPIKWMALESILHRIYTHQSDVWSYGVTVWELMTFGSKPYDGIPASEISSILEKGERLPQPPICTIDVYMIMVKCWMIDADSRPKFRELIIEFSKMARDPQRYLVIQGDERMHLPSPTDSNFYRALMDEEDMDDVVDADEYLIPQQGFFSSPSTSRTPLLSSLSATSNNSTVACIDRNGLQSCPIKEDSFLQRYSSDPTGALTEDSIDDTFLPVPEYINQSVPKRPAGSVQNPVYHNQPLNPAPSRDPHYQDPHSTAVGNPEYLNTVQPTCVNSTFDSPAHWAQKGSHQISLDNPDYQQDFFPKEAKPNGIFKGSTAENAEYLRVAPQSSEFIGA

inhibition | Compound
-0.393% (inactive) | CN(C(=O)CNC(=O)/C=C/c1cccc(Cl)c1)C1CCS(=O)(=O)C1 (stereo not drawn)
7.26% (inactive) | CN(C(=O)CNC(=O)/C=C/c1cccc(Cl)c1)C1CCS(=O)(=O)CC1
16.4% (inactive) | CN(C(=O)COC(=O)/C=C/c1cccc([N+](=O)[O-])c1)C1CCS(=O)(=O)C1 (stereo not drawn)
